Results taken from US20220289691A1, “5-AMINO-SUBSTITUTED PYRAZOLES AND TRIAZOLES AS PEST CONTROL AGENTS” (Bayer Aktiengesellschaft, priority 2019, published 2022).

What was measured:
Format in all cases: in vivo
Spodoptera frugiperda = Spodoptera frugiperda spray test; details: foliar, 168 h, maize leaf discs, after 7 days, read-out: efficacy (caterpillars killed)
How it was run: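 Compound was dissolved in acetone/dimethylformamide and diluted with water containing 1000 ppm alkylaryl polyglycol ether emulsifier to test concentrations. Maize leaf discs were sprayed, dried and infested with fall armyworm caterpillars. Efficacy (% caterpillars killed) was scored after 7 days.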

Ctenocephalides felis [1] = assay: Ctenocephalides felis in vitro contact test with adult cat fleas; details: 5 μg/cm^2 (=500 g of ai/ha), after 48 h, read-out: efficacy (fleas dead or moribund)
Method: Ctenocephalides felis—In Vitro Contact Tests with Adult Cat Fleas
For the coating of the test tubes, 9 mg of active compound are first dissolved in 1 ml of acetone p.a. and then diluted to the desired concentration with acetone p.a. 250 μl of the solution are distributed homogeneously on the inner walls and the base of a 25 ml glass tube by turning and rocking on an orbital shaker (rocking rotation at 30 rpm for 2 h). With 900 ppm of active compound solution and internal surface area 44.7 cm^2, given homogeneous distribution, an area-based dose of 5 μg/cm^2 is achieved.
After the solvent has evaporated off, the tubes are populated with 5-10 adult cat fleas (Ctenocephalides felis), sealed with a perforated plastic lid and incubated in a horizontal position at room temperature and ambient humidity. After 48 h, efficacy is determined. To this end, the tubes are stood upright and the fleas are knocked to the base of the tube. Fleas which remain motionless at the base or move in an uncoordinated manner are considered to be dead or moribund.
100% efficacy means that all the fleas were dead or moribund. 0% efficacy means that no fleas were harmed.

Diabrotica balteata = Diabrotica balteata spray test; details: 168 h, beetle larvae on wheat, after 7 days, read-out: efficacy (wheat plant growth); for pest or weed control at 100 g/ha: 100 g/ha (=32 μg/cavity); for pest or weed control at 125 g/ha: 125 g/ha (=40 μg/cavity); for pest or weed control at 500 g/ha: 500 g/ha (=160 μg/cavity)
How it was run: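 Germinated wheat seedlings in agar multiwell plates were sprayed with compound in acetone/DMF with emulsifier-containing water, then infested with 10-20 Diabrotica balteata larvae. After 7 days, efficacy (%) scored by plant growth: 100% equals untreated, uninfested control, 0% no plants grown.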

Ctenocephalides felis [2] = assay: Ctenocephalides felis oral test; details: 48 h, 100 ppm in citrated cattle blood, adult cat fleas, after 2 days, read-out: efficacy (kill)
Method: Ctenocephalides felis—Oral Test
(§1) Solvent: Dimethyl Sulfoxide
To produce a suitable active compound formulation, 10 mg of active compound are mixed with 0.5 ml of dimethyl sulfoxide. Dilution with citrated cattle blood gives the desired concentration.
About 20 unfed adult cat fleas (Ctenocephalides felis) are placed into a chamber which is closed at the top and bottom with gauze. A metal cylinder whose bottom end is closed with parafilm is placed onto the chamber. The cylinder contains the blood/active compound formulation, which can be imbibed by the fleas through the parafilm membrane.
After 2 days, the kill in % is determined. 100% means that all of the fleas have been killed; 0% means that none of the fleas have been killed.

Phaedon cochleariae = Phaedon cochleariae spray test; details: foliar, 168 h, Chinese cabbage leaf discs, after 7 days, read-out: efficacy (beetle larvae killed)
Method: Phaedon cochleariae—Spray Test Solvent: 78.0 parts by weight of acetone • • 1.5 parts by weight of dimethylformamide Emulsifier: alkylaryl polyglycol ether
To produce a suitable active compound formulation, 1 part by weight of active compound is dissolved using the stated parts by weight of solvent and made up with water containing an emulsifier concentration of 1000 ppm until the desired concentration is attained. To produce further test concentrations, the formulation is diluted with emulsifier-containing water.
Discs of Chinese cabbage leaves (Brassica pekinensis) are sprayed with an active compound formulation of the desired concentration and, after drying, populated with larvae of the mustard beetle (Phaedon cochleariae).
After 7 days, the efficacy in % is determined. 100% means that all the beetle larvae have been killed; 0% means that no beetle larvae have been killed.

Musca domestica = Musca domestica test; details: 100 ppm, adult houseflies, after 2 days
Method: as §1
To produce a suitable active compound formulation, 10 mg of active compound are mixed with 0.5 ml of dimethyl sulfoxide, and the concentrate is diluted with water to the desired concentration.
Vessels containing a sponge treated with sugar solution and the desired concentration of active compound formulation are populated with 10 adult houseflies (Musca domestica).
After 2 days, the kill in % is determined. 100% means that all of the flies have been killed; 0% means that none of the flies have been killed.

Boophilus microplus = Boophilus microplus injection test; details: 20 μg/animal, injection into engorged adult female cattle ticks, after 7 days
Method: Boophilus microplus—Injection Test
as §1
To produce a suitable active compound formulation, 10 mg of active compound are mixed with 0.5 ml of solvent and the concentrate is diluted to the desired concentration with solvent.
1 μl of the active compound solution is injected into the abdomen of 5 engorged adult female cattle ticks (Boophilus microplus). The animals are transferred into dishes and kept in a climate-controlled room.
Efficacy is assessed after 7 days by laying of fertile eggs. Eggs which are not visibly fertile are stored in a climate-controlled cabinet until the larvae hatch after about 42 days. An efficacy of 100% means that none of the ticks has laid any fertile eggs; 0% means that all the eggs are fertile.

Meloidogyne incognita = Meloidogyne incognita test; details: 336 h, lettuce, after 14 days, read-out: nematicidal efficacy (formation of galls)
Method: Meloidogyne incognita Test Solvent: 125.0 parts by weight of acetone
To produce a suitable active compound formulation, 1 part by weight of active compound is mixed with the stated amount of solvent and the concentrate is diluted to the desired concentration with water.
Vessels are filled with sand, active compound solution, an egg/larvae suspension of the southern root-knot nematode (Meloidogyne incognita) and lettuce seeds. The lettuce seeds germinate and the plants develop. The galls develop on the roots.
After 14 days, the nematicidal efficacy in % is determined by the formation of galls. 100% means that no galls were found; 0% means that the number of galls on the treated plants corresponds to the untreated control.

SMILES | pest or weed control at 100 g/ha (Spodoptera frugiperda) | pest or weed control at 5 µg/cm2 (Ctenocephalides felis [1]) | pest or weed control at 100 g/ha (Diabrotica balteata) | pest or weed control at 100 ppm (Ctenocephalides felis [2]) | pest or weed control at 100 g/ha (Phaedon cochleariae) | pest or weed control at 20 ppm (Meloidogyne incognita) | other results
CNc1nc(-c2ccc(NC(=O)N=C3SCC(=O)N3c3cc(C)ccc3C(C)C)cc2)nn1-c1ccc(OC(F)(F)C(F)(F)F)cc1 [Compound I-079] | 100% | 100% | 100% | – | – | – | –
CO[C@@H]1[C@@H](OC)[C@H](C)O[C@@H](OC(=O)Nc2ccc(-c3nc(NC(C)=O)n(-c4ccc(OC(F)(F)C(F)(F)F)cc4)n3)cc2)[C@@H]1OC [Compound I-008] | 100% | – | – | 100% | 100% | – | pest or weed control at 500 g/ha (Spodoptera frugiperda): 100%; pest or weed control at 500 g/ha (Phaedon cochleariae): 100%; efficacy (kill) (Musca domestica): 80%
CNc1nc(-c2ccc(C=NN=C3SCCCN3c3ccccc3C(C)C)cc2)nn1-c1ccc(OC(F)(F)F)cc1 [Compound I-117] | 100% | 100% | 100% | – | – | – | –
CCC(=O)Nc1nc(-c2ccc(NC(=O)O[C@@H]3O[C@@H](C)[C@H](OC)[C@@H](OC)[C@H]3OC)cc2)nn1-c1ccc(OC(F)(F)C(F)(F)F)cc1 [Compound I-003] | 100% | – | – | 100% | 100% | – | pest or weed control at 500 g/ha (Spodoptera frugiperda): 100%; efficacy (laying of fertile eggs) (Boophilus microplus): 100%; pest or weed control at 500 g/ha (Phaedon cochleariae): 100%
CCN(CC)c1nc(-c2ccc(C=NNC(=S)Nc3ccccc3C(C)C)cc2)nn1-c1ccc(OC(F)(F)F)cc1 [Compound I-020] | 100% | – | – | – | – | 100% | pest or weed control at 125 g/ha (Diabrotica balteata): 80%; pest or weed control at 500 g/ha (Diabrotica balteata): 100%
CC(C)Nc1nc(-c2ccc(C=NNC(=S)Nc3ccccc3C(C)C)cc2)nn1-c1ccc(OC(F)(F)F)cc1 [Compound I-052] | 100% | – | 100% | – | – | 100% | –
CNc1nc(-c2ccc(C=NN=C3SCC(=O)N3c3ccccc3C(C)C)c(F)c2)nn1-c1ccc(OC(F)(F)F)cc1 [Compound I-105] | 100% | – | 100% | – | – | 90% | –
CC(=O)Nc1nc(-c2ccc(C=NNC(=S)Nc3ccccc3C(C)C)cc2)nn1-c1ccc(OC(F)(F)F)cc1 [Compound I-009] | 100% | 100% | – | 100% | 100% | – | –
CNc1nc(-c2ccc(NC(=O)N=C3SCC(=O)N3c3cc(OC)ccc3C(C)C)cc2)nn1-c1ccc(OC(F)(F)C(F)(F)F)cc1 [Compound I-083] | 100% | 90% | 100% | – | – | – | –
CNc1nc(-c2ccc(C=NN=c3scc(C)n3-c3ccccc3C(C)C)cc2)nn1-c1ccc(OC(F)(F)F)cc1 [Compound I-097, 3-[4-({[3-(2-isopropylphenyl)-4-methyl-1,3-thiazol-2(3H)-ylidene]hydrazono}methyl)phenyl]-N-methyl-1-[4-(trifluoromethoxy)phenyl]-1H-1,2,4-triazol-5-amine] | 83% | 100% | 100% | – | – | – | –
CNc1nc(-c2ccc(C=NN=C3SCC(=O)N3c3cc(OC)ccc3C(C)C)cc2)nn1-c1ccc(OC(F)(F)F)cc1 [Compound I-090] | 100% | 100% | 100% | – | – | – | –
CC(C)c1ccccc1NC(=S)NN=Cc1ccc(-c2nc(NC3CC3)n(-c3ccc(OC(F)(F)F)cc3)n2)cc1 [Compound I-051] | 100% | – | 100% | – | – | 90% | pest or weed control at 500 g/ha (Diabrotica balteata): 100%
CCO[C@@H]1[C@@H](OC)[C@H](C)O[C@@H](OC(=O)Nc2ccc(-c3nc(NC(=O)CC)n(-c4ccc(OC(F)(F)F)cc4)n3)cc2)[C@@H]1OC [Compound I-007] | – | – | – | 90% | 100% | – | pest or weed control at 500 g/ha (Spodoptera frugiperda): 100%; efficacy (laying of fertile eggs) (Boophilus microplus): 100%; pest or weed control at 500 g/ha (Phaedon cochleariae): 100%
CCO[C@@H]1[C@@H](OC)[C@H](C)O[C@@H](OC(=O)Nc2ccc(-c3nc(NC(=O)C4CC4)n(-c4ccc(OC(F)(F)C(F)(F)F)cc4)n3)cc2)[C@@H]1OC [Compound I-002] | 100% | – | – | 100% | 83% | – | pest or weed control at 500 g/ha (Spodoptera frugiperda): 100%; pest or weed control at 500 g/ha (Phaedon cochleariae): 100%; efficacy (kill) (Musca domestica): 90%
CNc1nc(-c2ccc(C=NNC(=S)Nc3ccccc3C(C)C)cc2F)nn1-c1ccc(OC(F)(F)F)cc1 [Compound I-109] | 100% | – | 100% | – | – | 90% | –
CC(=O)Nc1nc(-c2ccc(C(C)=NNC(=S)Nc3ccccc3C(C)C)cc2)nn1-c1ccc(OC(F)(F)F)cc1 [Compound I-017] | 100% | – | – | 95% | 100% | 90% | –
CNc1nc(-c2ccc(C=NNC(=S)Nc3ccccc3C(C)C)c(F)c2)nn1-c1ccc(OC(F)(F)F)cc1 [Compound I-104] | 100% | – | 100% | – | – | 90% | –
CNc1nc(-c2ccc(C=NNC(=S)Nc3ccccc3C(C)C)cc2Cl)nn1-c1ccc(OC(F)(F)F)cc1 [Compound I-108] | 100% | – | 100% | – | – | 90% | –
CC(=O)Nc1nc(-c2ccc(C=NN=C3SCC(=O)N3c3ccccc3C(C)C)cc2)nn1-c1ccc(OC(F)(F)F)cc1 [Compound I-032] | 100% | 80% | – | – | – | – | pest or weed control at 125 g/ha (Diabrotica balteata): 100%; pest or weed control at 500 g/ha (Diabrotica balteata): 100%
